The text below walks through data of ChEMBL document CHEMBL1159113, “Investigation of Beckett-Casy model 1: synthesis of novel 16,17-seco-naltrexone derivatives and their pharmacology” (Bioorg Med Chem Lett, 2010).

In general, IC50 refers to the concentration that gives 50% inhibition. For orientation: Ki means a dissociation constant, usually derived from enzyme kinetics or from competition with a known ligand. Lower therefore signals higher affinity.

The target in one test is Mu-type opioid receptor (Cavia porcellus, UniProt P97266). Nature of the test: Displacement of [3H]DAMGO from mu opioid receptor in guinea pig forebrain.
Mu-type opioid receptor, sequence (P97266 whole entry): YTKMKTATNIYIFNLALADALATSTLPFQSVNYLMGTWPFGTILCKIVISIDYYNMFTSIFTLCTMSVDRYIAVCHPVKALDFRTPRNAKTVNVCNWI
Test [1] can be described thus: Displacement of [3H]NTI from delta opioid receptor in guinea pig forebrain. Further details: species or system Cavia porcellus. (In general: In a radioligand displacement assay an active substance lowers the binding of a labelled ligand.)
The target of test [2] is Kappa-type opioid receptor (Cavia porcellus, UniProt P41144). Put plainly: Displacement of [3H]U69,593 from kappa opioid receptor in guinea pig cerebellum. It counts as tissue-based.
Kappa-type opioid receptor, sequence (P41144 whole entry): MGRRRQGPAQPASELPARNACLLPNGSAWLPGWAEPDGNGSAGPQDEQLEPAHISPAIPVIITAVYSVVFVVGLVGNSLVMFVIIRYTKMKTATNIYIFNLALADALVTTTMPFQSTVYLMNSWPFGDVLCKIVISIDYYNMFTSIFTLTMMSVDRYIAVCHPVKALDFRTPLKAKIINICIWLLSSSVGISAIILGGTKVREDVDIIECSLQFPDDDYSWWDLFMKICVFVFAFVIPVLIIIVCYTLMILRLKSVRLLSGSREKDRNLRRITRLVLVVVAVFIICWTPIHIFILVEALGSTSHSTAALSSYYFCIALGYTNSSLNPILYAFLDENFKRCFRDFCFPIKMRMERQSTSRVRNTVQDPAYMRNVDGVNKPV

Take `CC[C@]12c3c4ccc(O)c3O[C@H]1C(=O)CC[C@@]2(O)[C@H](N(C)CC1CC1)C4`: the IC50 (on Mu-type opioid receptor; in test [2]) was above 1000 nM throughout. Moreover, the Ki in test [1] is 77.6 nM.

On to `C=C[C@]12c3c4ccc(O)c3O[C@H]1C(=O)CC[C@@]2(O)[C@H](NCC1CC1)C4`, for which the Ki at Mu-type opioid receptor worked out at 8.6 nM; in test [1] it was 4.73 nM; in test [2] it was 193 nM.

As to `CN(CC1CC1)[C@@H]1Cc2ccc(O)c3c2[C@@]2(CCO3)CC(=O)CC[C@@]12O`, the IC50 (at Mu-type opioid receptor; in test [1]; in test [2]) was above 1000 nM throughout.

With `CC[C@]12c3c4ccc(O)c3O[C@H]1C(=O)CC[C@@]2(O)[C@H](NCC1CC1)C4`, the Ki on Mu-type opioid receptor was 26.3 nM; in test [1], 24.1 nM; in test [2] it was 275 nM.

For `CN(CC1CC1)[C@@H]1Cc2ccc(O)c3c2[C@]24CCO[C@]12CCC(=O)[C@@H]4O3`, the Ki at Mu-type opioid receptor is 24 nM; in test [1], 43.2 nM. Besides, the IC50 in test [2] was above 1000 nM.

As to `C=C[C@]12c3c4ccc(O)c3O[C@H]1C(=O)CC[C@@]2(O)[C@H](N(C)CC1CC1)C4`, the Ki on Mu-type opioid receptor amounted to 26.4 nM; in test [1], 39.7 nM; in test [2], 200 nM.

Regarding `CN(CC1CC1)C1Cc2ccc(O)c3c2[C@@]2(CCn4ccnn4)[C@@H](O3)C(=O)CC[C@@]12O` (stereo partly specified), the IC50 (at Mu-type opioid receptor; in test [1]; in test [2]) was above 1000 nM throughout.
